The text below walks through data of US11667602B2, “Compounds and their use” (AstraZeneca AB, priority 2020, dated 2023).

The assay concerns the target T1, human RXFP1 (Homo sapiens, UniProt Q9HBX9).
T1 sequence (Q9HBX9 1-757): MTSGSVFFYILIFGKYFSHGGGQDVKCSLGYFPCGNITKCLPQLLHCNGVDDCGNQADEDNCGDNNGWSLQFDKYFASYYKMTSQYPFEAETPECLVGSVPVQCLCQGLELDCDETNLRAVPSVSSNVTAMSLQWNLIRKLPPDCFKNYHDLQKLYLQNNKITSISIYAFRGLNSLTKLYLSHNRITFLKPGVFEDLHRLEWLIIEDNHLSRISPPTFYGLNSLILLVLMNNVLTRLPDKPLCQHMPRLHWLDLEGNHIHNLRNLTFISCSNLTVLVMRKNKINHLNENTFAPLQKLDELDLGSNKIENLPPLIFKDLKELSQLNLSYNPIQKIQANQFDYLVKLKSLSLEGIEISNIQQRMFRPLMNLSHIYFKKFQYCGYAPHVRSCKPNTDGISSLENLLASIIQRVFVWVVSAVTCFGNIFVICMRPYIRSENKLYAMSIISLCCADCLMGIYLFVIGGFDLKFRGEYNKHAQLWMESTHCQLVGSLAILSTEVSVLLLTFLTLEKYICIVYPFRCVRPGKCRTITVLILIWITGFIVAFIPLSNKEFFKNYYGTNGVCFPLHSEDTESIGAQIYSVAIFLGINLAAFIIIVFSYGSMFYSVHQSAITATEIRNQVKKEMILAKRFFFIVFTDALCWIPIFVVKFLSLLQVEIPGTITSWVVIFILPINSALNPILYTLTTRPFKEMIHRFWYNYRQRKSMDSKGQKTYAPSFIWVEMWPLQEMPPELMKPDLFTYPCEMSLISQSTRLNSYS
Briefly: RXFP1 Hu cAMP (Test A). Type of assay: cell-based. Further details: expressed in transfected cells; host or cells: Jump-In T-REx CHO-K1 cells (ThermoFisher), induced with 10 ng/ml doxycycline for 24 h. The note with it: RXFP1 Hu cAMP; for EC50: read-out: Test A EC50. An outline of the steps:
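Doxycycline-induced (10 ng/ml, 24 h) CHO-K1 cells stably expressing human RXFP1; cAMP read by competitive HTRF after 2 h at room temperature, with 0.5 mM IBMX final.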

For orientation: EC50 means the concentration that produces a half-maximal response.

As to `COc1cc(C#N)c(O[C@H]2CC[C@@](C)(C(=O)O)CC2)cc1C(=O)Nc1cc(Cl)ccc1C(=O)NCC1(c2ccccc2)CC1` [Example 158], the “Test A Sinf” value worked out at 118% and the EC50 stood at 110 nM.

Consider `COc1cc(C#N)c(O[C@H]2CC[C@@](C)(C(=O)O)CC2)cc1C(=O)Nc1cc(Cl)ccc1C(=O)NC[C@H]1C[C@@H](C)C1` [Example 159], for which the “Test A Sinf” value was 125% and the EC50 was 78 nM.

As for `COc1cc(C#N)c(O[C@H]2CC[C@@](C)(C(=O)O)CC2)cc1C(=O)Nc1cc(Cl)ccc1C(=O)NCC1(F)CCC1` [Example 160], the “Test A Sinf” value came out at 125% and the EC50 came out at 160 nM.

Regarding `COc1cc(C#N)c(O[C@H]2CC[C@@](C)(C(=O)O)CC2)cc1C(=O)Nc1cc(Cl)ccc1C(=O)NC12CC(C1)C2` [Example 161], the “Test A Sinf” value turned out to be 170% and the concentration for a half-maximal effect (EC50) worked out at 130 nM.

Take `COc1cc(C#N)c(O[C@H]2CC[C@@](C)(C(=O)O)CC2)cc1C(=O)Nc1cc(Cl)ccc1C(=O)N[C@H](C)C(C)(C)F` [Example 162]: the “Test A Sinf” value is 107% and the EC50 turned out to be 69 nM.

For the molecule `CCC(C)(C)NC(=O)c1ccc(Cl)cc1NC(=O)c1cc(O[C@H]2CC[C@@](C)(C(=O)O)CC2)c(C#N)cc1OC` [Example 163], the “Test A Sinf” value came to 151% and the EC50 is 67 nM.

As for `COc1cc(C#N)c(O[C@H]2CC[C@@](C)(C(=O)O)CC2)cc1C(=O)Nc1cc(Cl)ccc1C(=O)NCC(C)(C)F` [Example 164], the “Test A Sinf” value is given as 142% and the EC50 amounted to 130 nM.

With `COc1cc(C#N)c(O[C@H]2CC[C@@](C)(C(=O)O)CC2)cc1C(=O)Nc1cc(Cl)ccc1C(=O)NC(C)(C)C1CC1` [Example 165], the “Test A Sinf” value amounted to 111% and the EC50 was found to be 12 nM.

For `COc1cc(C#N)c(O[C@H]2CC[C@@](C)(C(=O)O)CC2)cc1C(=O)Nc1cc(C)ccc1C(=O)NCc1cccc(F)c1` [Example 166, (1s,4s)-4-(2-Cyano-5-((2-((3-fluorobenzyl)carbamoyl)-5-methylphenyl)carbamoyl)-4-methoxyphenoxy)-1-methylcyclohexane-1-carboxylic acid], the “Test A Sinf” value is reported as 137% and the concentration for a half-maximal effect (EC50) was 580 nM.

For `CCC(CC)CNC(=O)c1ccc(C)cc1NC(=O)c1cc(O[C@H]2CC[C@@](C)(C(=O)O)CC2)c(C#N)cc1OC` [Example 167], the “Test A Sinf” value stood at 147% and the concentration for a half-maximal effect (EC50) was 120 nM.

For `CCC(CC)NC(=O)c1ccc(C)cc1NC(=O)c1cc(O[C@H]2CC[C@@](C)(C(=O)O)CC2)c(C#N)cc1OC` [Example 168], the “Test A Sinf” value came out at 121% and the EC50 is greater than 2200 nM.

Consider `COc1cc(C#N)c(O[C@H]2CC[C@@](C)(C(=O)O)CC2)cc1C(=O)Nc1cc(C)ccc1C(=O)N[C@H]1CC[C@H](C)CC1` [Example 169], for which the “Test A Sinf” value is on record as 111% and the EC50 was determined as 270 nM.

Regarding `COc1cc(C#N)c(O[C@H]2CC[C@@](C)(C(=O)O)CC2)cc1C(=O)Nc1cc(C)ccc1C(=O)N[C@H](C)C(C)C` [Example 170], the “Test A Sinf” value was 136% and the EC50 was determined as 190 nM.

For `COc1cc(C#N)c(O[C@H]2CC[C@@](C)(C(=O)O)CC2)cc1C(=O)Nc1cc(C)ccc1C(=O)N[C@H]1C[C@@H](C)C1` [Example 171], the “Test A Sinf” value is on record as 119% and the 50% effective concentration (EC50) worked out at 440 nM.

As to `COc1cc(C#N)c(O[C@H]2CC[C@@](C)(C(=O)O)CC2)cc1C(=O)Nc1cc(C)ccc1C(=O)NCC1(F)CCC1` [Example 172], the “Test A Sinf” value came to 125% and the EC50 amounted to 980 nM.

Take `COc1cc(C#N)c(O[C@H]2CC[C@@](C)(C(=O)O)CC2)cc1C(=O)Nc1cc(C)ccc1C(=O)NC12CC(C1)C2` [Example 173]: the “Test A Sinf” value came to 126% and the 50% effective concentration (EC50) turned out to be 190 nM.

Take `COc1cc(C#N)c(O[C@H]2CC[C@@](C)(C(=O)O)CC2)cc1C(=O)Nc1cc(C)ccc1C(=O)NCC1(C)CC1` [Example 174]: the “Test A Sinf” value is reported as 132% and the concentration giving a half-maximal response (EC50) turned out to be 110 nM.

Regarding `COc1cc(F)c(Cn2nccc2C(=O)O)cc1C(=O)N[C@@H]1[C@H]2CC[C@H](C2)[C@@H]1C(=O)Nc1cccc(S(=O)(=O)C(F)(F)F)c1` [Example 221, 1-(2-Fluoro-4-methoxy-5-(((1S,2R,3S,4R)-3-((3-((trifluoromethyl)sulfonyl)phenyl)carbamoyl)bicyclo[2.2.1]heptan-2-yl)carbamoyl)benzyl)-1H-pyrazole-5-carboxylic acid], the EC50 is greater than 40000 nM.

Consider `COc1cc(F)c(Cn2ccc(C(=O)O)n2)cc1C(=O)N[C@@H]1[C@H]2CC[C@H](C2)[C@@H]1C(=O)Nc1cccc(S(=O)(=O)C(F)(F)F)c1` [Example 222, 1-(2-Fluoro-4-methoxy-5-(((1S,2R,3S,4R)-3-((3-((trifluoromethyl)sulfonyl)phenyl)carbamoyl)bicyclo[2.2.1]heptan-2-yl)carbamoyl)benzyl)-1H-pyrazole-3-carboxylic acid], for which the EC50 is greater than 40000 nM.

For the molecule `COc1cc(F)c(-c2ccc(C(=O)O)c(N(C)C)c2)cc1C(=O)N[C@@H]1[C@H]2CC[C@H](C2)[C@@H]1C(=O)Nc1cccc(S(=O)(=O)C(F)(F)F)c1` [Example 239], the “Test A Sinf” value is 100% and the EC50 stood at 130 nM.

Take `COc1cc(F)c(-c2ccc(OCCCC(=O)O)cc2)cc1C(=O)N[C@@H]1[C@H]2CC[C@H](C2)[C@@H]1C(=O)Nc1cccc(S(=O)(=O)C(F)(F)F)c1` [Example 251, 4-((2′-Fluoro-4′-methoxy-5′-(((1S,2R,3S,4R)-3-((3-((trifluoromethyl)sulfonyl)phenyl)carbamoyl)bicyclo[2.2.1]heptan-2-yl)carbamoyl)-[1,1′-biphenyl]-4-yl)oxy)butanoic acid]: the “Test A Sinf” value was determined as 101% and the EC50 worked out at 33 nM.

As for `COc1cc(F)c(-c2cc(C)c(C(=O)O)c(C)c2)cc1C(=O)N[C@@H]1[C@H]2CC[C@H](C2)[C@@H]1C(=O)Nc1cccc(S(=O)(=O)C(F)(F)F)c1` [Example 252, 2′-Fluoro-4′-methoxy-3,5-dimethyl-5′-(((1S,2R,3S,4R)-3-((3-((trifluoromethyl)sulfonyl)phenyl)carbamoyl)bicyclo[2.2.1]heptan-2-yl)carbamoyl)-[1,1′-biphenyl]-4-carboxylic acid], the “Test A Sinf” value came out at 86% and the EC50 is 780 nM.

Turning to `COc1cc(-c2cc(C(=O)N[C@@H]3[C@H]4CC[C@H](C4)[C@@H]3C(=O)Nc3cccc(S(=O)(=O)C(F)(F)F)c3)c(OC)cc2F)ccc1CCC(=O)O` [Example 259, 3-(2′-Fluoro-3,4′-dimethoxy-5′-(((1S,2R,3S,4R)-3-((3-((trifluoromethyl)sulfonyl)phenyl)carbamoyl)bicyclo[2.2.1]heptan-2-yl)carbamoyl)-[1,1′-biphenyl]-4-yl)propanoic acid], the “Test A Sinf” value turned out to be 97% and the EC50 was found to be 58 nM.

Turning to `COc1cc(F)c(-c2ccc(C(N)(CO)CO)cc2)cc1C(=O)N[C@@H]1[C@H]2CC[C@H](C2)[C@@H]1C(=O)Nc1cccc(S(=O)(=O)C(F)(F)F)c1` [Example 265, (1R,2S,3R,4S)-3-(4′-(2-Amino-1,3-dihydroxypropan-2-yl)-6-fluoro-4-methoxy-[1,1′-biphenyl]-3-carboxamido)-N-(3-((trifluoromethyl)sulfonyl)phenyl)bicyclo[2.2.1]heptane-2-carboxamide], the “Test A Sinf” value stood at 78%.

Regarding `COc1cc(F)c(C2CCC(C(=O)O)CC2)cc1C(=O)NC1C2CCC(C2)C1C(=O)Nc1cccc(S(=O)(=O)C(F)(F)F)c1` [Example 268, (1S,4s)-4-(2-Fluoro-4-methoxy-5-(((1S,2R,3S,4R)-3-((3-((trifluoromethyl)sulfonyl)phenyl)carbamoyl)bicyclo[2.2.1]heptan-2-yl)carbamoyl)phenyl)cyclohexane-1-carboxylic acid], the “Test A Sinf” value was 84% and the EC50 worked out at 860 nM.

As for `COc1cc(F)c([C@H]2CC[C@H](C(=O)O)CC2)cc1C(=O)N[C@@H]1[C@H]2CC[C@H](C2)[C@@H]1C(=O)Nc1cccc(S(=O)(=O)C(F)(F)F)c1` [Example 269, (1R,4r)-4-(2-fluoro-4-methoxy-5-(((1S,2R,3S,4R)-3-((3-((trifluoromethyl)sulfonyl)phenyl)carbamoyl)bicyclo[2.2.1]heptan-2-yl)carbamoyl)phenyl)cyclohexane-1-carboxylic acid], the “Test A Sinf” value was found to be 44% and the EC50 came to 2900 nM.

As to `COc1cc(F)c(-c2ccc(C(=O)O)cc2)cc1C(=O)N[C@@H]1[C@H]2CC[C@H](C2)[C@@H]1C(=O)NCC(C)(C)C` [Example 304], the “Test A Sinf” value is listed as 95%.
